One assay concerns the target T1, ALDH1A3 (Homo sapiens, UniProt P47895).
T1 construct: E. coli BL21 (DE3) were transformed with the full-length expression vector of each isoform; His-tag; made in house; host or cells: E. coli BL21 (DE3)
T1 sequence (P47895 1-512): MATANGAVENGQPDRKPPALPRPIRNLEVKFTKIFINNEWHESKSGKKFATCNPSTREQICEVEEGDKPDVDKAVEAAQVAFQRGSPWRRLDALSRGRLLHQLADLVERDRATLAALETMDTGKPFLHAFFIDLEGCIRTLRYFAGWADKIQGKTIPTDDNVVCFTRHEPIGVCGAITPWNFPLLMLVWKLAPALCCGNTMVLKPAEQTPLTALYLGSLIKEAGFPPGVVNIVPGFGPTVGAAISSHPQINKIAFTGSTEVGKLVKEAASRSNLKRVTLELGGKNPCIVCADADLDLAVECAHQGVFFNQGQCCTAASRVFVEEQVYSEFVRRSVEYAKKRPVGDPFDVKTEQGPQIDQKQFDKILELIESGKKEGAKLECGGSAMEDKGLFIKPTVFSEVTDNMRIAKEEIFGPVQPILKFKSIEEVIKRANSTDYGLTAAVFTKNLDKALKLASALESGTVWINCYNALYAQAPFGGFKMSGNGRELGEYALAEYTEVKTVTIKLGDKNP
Briefly: IC50 and Ki evaluation, enzymatic inhibition with acetaldehyde. Format: biochemical. As for the experimental part:
Initially, the inhibitory activities of our fluorescent probes were screened at a fixed concentration of 50 μM using a Tecan Sunrise 96 Multiplate Reader with Greiner Bio-One 96-UV-Transparent Microplates. The analysis was performed in triplicate in a total volume of 100 μl per well containing 20 mM Tris HCl pH 8.0, 1 mM β-mercaptoethanol, 150 mM KCl, 500 μM NAD^+, […], 2.8 μM hALDH1A and 20 mM acetaldehyde. Afterwards, the inhibitory potency of the fluorescent probes was further investigated, evaluating the IC50 parameter. The enzymatic inhibition assays were performed in triplicate in a total volume of 100 μl per well containing 20 mM Tris HCl pH 8.0, 1 mM β-mercaptoethanol, 150 mM KCl, 500 μM NAD^+, 2.8 μM hALDH1A and 20 mM acetaldehyde in the presence of different probe concentrations, from 200 μM to 1.5625 μM. The DMSO final concentration allowed was up to 15%. Only for ALDH1A3 in complex with Probe 10, the Ki affinity parameter was calculated by performing the analysis in triplicate in a total volume of 100 μl per well containing 20 mM Tris HCl pH 8.0, 1 mM β-mercaptoethanol, 150 mM KCl, 500 μM NAD^+ and 2.8 μM ALDH1As. Due to chemical nature of Probe 10 and Probe 11, we set up the enzymatic assay assuming a competitive inhibition using different compounds concentration, from 200 μM to 1 μM, and different acetaldehyde concentrations, from 20 mM to 2.5 mM. Each reaction mix was preincubated for 10 min at 25 °C before the analysis. The catalytic activity was measured by monitoring the absorbance at 340 nm (εNADH = 6220 M^−^1 cm^−1) for 30 min at 25 °C and the inhibitory parameters were calculated by processing the raw data on SigmaPlot[53].

The next assay relates to U87MG glioblastoma cells. Briefly: Fluorescent microscopy of probe in cells. Format: cell-based, human. The conditions noted are these: 10 µM; for fluorescence in cells: 2 h. The method, then:
In total, 20,000 cells/ml of U87MG, HEK293T, hASTRO and 4T1 were seeded onto glass cover slips in 24-well plates. The cells incubated at 37 °C in a 5% CO2 atmosphere overnight. Cells were washed with 1 ml of PBS buffer two times, then a 10 μM solution of probes was added to each well for 2 h. For nuclei staining, 1 µg/ml of DAPI was added the last 15 min of treatment. The cover slips were removed and washed with PBS buffer, and fixed with 0.5 ml of 4% formaldehyde solution for 10 min. The cover slips were washed with 1 ml of PBS, then slides were prepared using Mounting Media (Merck Life Science). Fluorescence images were acquired using a Leica THUNDER Imager 3D Live Cell (Leica Microsystems, Wetzlar, Germany) microscope equipped with an S Fluor 40×/1.3 objective using the LAS X software.

Assay [1] has as its system GL261 glioblastoma in left striatum. Briefly: In vivo labeling of orthotopic GL261 glioblastoma after i.p. injection. Set-up: species or system mice. The conditions noted are these: 6 days after implantation, 6 h after injection, probe 10 18 μg, probe 11 5 μg. The source says:
We used in vitro and in vivo cells from a mouse high grade glioma cell line, GL261[56]. Briefly, ten 2- to 3-month-old female C57BlC mice were stereotactically implanted under deep general anesthesia (isoflurane supplemented with nitrous oxide) with 1 × 10^5 GL261 glioblastoma cells. The cells were stereotactically inoculated through a burr hole by a Hamilton syringe into the left striatum (coordinates: 1 mm anteroposterior and 1 mm lateral from bregma, at a depth of 3 mm). All experimental procedures were conducted in accordance with the European Communities Council Directive of the 24th of November 1986 (86/609 EEC), with the Recommendation 18/06/2007, Dir. 2010/63/UE and with the Italian law for care and use of experimental animals (DL116/92) and were approved by the Italian Ministry of Health (prot. E669C.15) and by the Bioethical Committee of the University of Turin. All animals were housed under a 12-h light-dark cycle in an environmentally controlled room. All experiments were designed to minimize the numbers of animals used and their discomfort. In each experiment, animals with tumors were allocated to two groups and i.p. injected with probe 10 (18 μg) or probe 11 (5 μg). […] Quantitative and phenotypic evaluations were made on the images acquired with a Leica TCS SP5 confocal microscope. […]

Values joined by “and” are separate entries in the source; they are usually repeats but may differ in a detail not shown here. Equal entries are not always repeated.

The Ki is the equilibrium dissociation constant of an inhibitor or competing ligand from its target.

On to `COc1cc(/C=C/C(O)=C/C(=O)/C=C/c2ccc(OCc3cn(CCOc4ccc(C=O)cc4)nn3)c(OC)c2)ccc1O` [Probe 10], for which, at ALDH1A3, the “inhibition of ALDH1A3” value is reported as “strongly inhibited” and the “mechanism of action (inhibition)” value is “competitive”. The Ki at ALDH1A3 (acetaldehyde substrate, full competitive model) was found to be 880 nM. The “fluorescence in cells” value with U87MG glioblastoma cells is listed as “can determine fluorescence”. In addition, the “If ROI” value with U87MG glioblastoma cells (U87-MG, 2 h (Fig. 5g)) is 238.82 a.u. and 283.69 a.u. and 302.7 a.u. and 195.53 a.u. and 182.63 a.u. Further, the “labelling of the growing tumor in vivo” value in assay [1] was “only Probe 10 was able to selectively label the growing tumor”.
Regarding `CCOC(=O)Cn1cc(COc2ccc(/C=C/C(=O)/C=C(O)/C=C/c3ccc(O)c(OC)c3)cc2OC)nn1` [Probe 11], at ALDH1A3, the “inhibition of ALDH1A3” value was “no inhibitory effect”. For the same compound, the “fluorescence in cells” value in the assay on U87MG glioblastoma cells is “fluorescence has been observed using Probe 11 only in U87MG cell lines”. Further, in assay [1], the “labelling of the growing tumor in vivo” value is “does not penetrate to any appreciable level the tumor cells in vivo”.

For the origin of these results see paper PMC9437101, “Curcumin-based-fluorescent probes targeting ALDH1A3 as a promising tool for glioblastoma precision surgery and early diagnosis” (Communications Biology, 2022).
